Reference: patent US11471478B2, “Use of cyclodextrins in diseases and disorders involving phospholipid dysregulation” (priority 2017, dated 2022)
Values joined by “and” are separate entries in the source; they are usually repeats but may differ in a detail not shown here. Equal values may be shown once.

Legend:
[1] = tested on: MDA-MB 231 and MCF-7 human breast epithelial cell lines; experiment: Wound healing / gap closure migration assay; assay type: cell-based; settings: for inhibition of migration, 1 mM HP-α-CD versus 2 mM HP-β-CD: MDA-MB-231 and MCF-7
Protocol: Published results have shown that β-CD inhibits human MDA-MB 231 cell migration (Guerra F S, Sampaio LdS, et al. (2016) Translational Medicine Communications 1:3). This inhibition was attributed to the ability of β-CD to “deplete cholesterol”. β-CD, however, depletes also phospholipids. […] Cells were cultured in 24-well culture plates (Cytoselect CBA-120, 0.9 mm wound healing/gap closure migration assay) for 24 h with wound healing insert in place. Cells were then treated for 2 h with HP-β-CD, HP-α-CD, or control. Protocol: Warm up the 24-well plate (CBA-120, Cell BioLabs Inc.) with 0.9 mm CytoSelect Wound Healing Inserts at room temperature for 10 min. Using sterile forceps, orient the desired number of inserts in the plate wells with their “wound field” aligned in the same direction. […] Add 500 μL of cell suspension to each well by carefully inserting the pipette tip through the open end at the top of the insert. For optimal cell dispersion, add 250 μL of cell suspension to either side of the open ends at the top of the insert. Incubate cells in a cell culture incubator for 12-24 hours. Carefully remove the insert from the well to begin the wound healing assay. Use sterile forceps to grab and lift the insert slowly from the plate well. Slowly aspirate and discard the media from the wells. Wash wells with media to remove dead cells and debris. Finally, add media to wells to keep cells hydrated. Repeat wash if wells still have debris or unattached cells. When washing is complete, add media with FBS and/or compounds to continue cell culture and wound healing process. Agents that inhibit or stimulate cell migration can be added directly to the wells. Incubate cells in a cell culture incubator (2 hours) and then wash cells with PBS and then add fresh media without compounds. Incubate 12-24 hours before wash and fixing. Remove the fixation solution and add 400 μL of Cell Stain Solution to each well. Allow the stain to incubate with the cells for 15 minutes at room temperature. Aspirate and discard the solution. Carefully wash each stained well 3× with deionized water. Discard washes and allow cells to dry at room temperature. Cells that migrated into the wounded area or protruded from the border of the wound were visualized and photographed under an inverted microscope. Determine the surface area of the defined wound area: Total Surface Area=0.9 mm×length. Determine the surface area of the migrated cells into the wound area: Migrated Cell Surface Area=length of cell migration (mm)×2× length. Percent Closure (%)=Migrated Cell Surface Area/Total Surface Area×100 (see FIG. 36)

[2] = tested on: MDA-MB-231 breast cancer cells; experiment: NSG mice injected with human MDA-MB-231 breast cancer cells; assay type: in vivo
Protocol: NSG mice (NOD.Cg-Prkdcscid Il2rgtm1Wjl/SzJ, strain #005557 (10 wk old) were obtained from Jackson Laboratories (Bar Harbor, Me.), housed in isolated quarters, and fed with autoclaved water and food.
An MDA-MB-231 cell line was obtained (ATCC) and kept frozen in liquid nitrogen. Upon start of culture, cells were thawed (1.5 min in 37° C. water) and transferred to DMEM/F-12 supplemented with 5% FBS, 2 mM L-glutamine, 1 mM sodium pyruvate, and 0.02 mM non-essential amino acids. Cells were grown to several millions in 60 mm dishes at 70-80% confluence. Before injection, cells were briefly rinsed twice in PBS followed by Versene (EDTA, Invitrogen) and placed on ice with excess phosphate-buffered saline and phenol red-free matrigel basement membrane extract to a concentration of about 15 mg/mL matrigel. 100 μL cell mixture (20,000 cells or saline only) were injected into the lactiferous duct of the 3rd or 4th mammary glands under brief isofluorane anesthesia. Groups of 15 mice each were injected IP with 800 mg/kg of HP-α-CD, HP-β-CD per week (over four days, Mon, Tue, Thu, Fri), or saline (control) for six weeks. Size of the primary tumor was measured weekly.
Breast tissue were palpated and measured twice a week with a micro-metric analytical device scaled to 1 mm precision. Mice were weighed weekly on a digital scale (0.1 g precision).
At the end of the study period, mice were anaesthetized with isofluorane with 1× phosphate-buffered saline (PBS) and subsequently with 4% formaldehyde in PBS. Tissue from lung and liver were removed and fixated in formalin for microscopic examination. Metastases were visualized and counted by tissue embedding in paraffin and sectioning with immunohistochemistry and histological stain (H&E) and immunostained with anti-HLA antibody. After blocking for 1 h with BSA (5%, frac V), the anti-HLA was incubated at 4° C. overnight, washed for 1 h in PBS, then incubated with biotinylated anti-mouse IgG for 1 h at room temperature. After washing with PBS, metastases were detected on the slide using Envision (Dako).
After blood collection, whole blood samples were centrifuged (at 10,000 m/s^2 for 15 min and then at 100,000 m/s^2 for 10 min), and plasma was isolated. The samples were stored at −80° C. until analysis.
Prior to analysis (30 min), samples and assay reagents were equilibrated to room temperature. The samples were run at a 1:4 dilution and quantified in duplicate using a multi-plex mouse panel for quantification of IL-1β, IL-18, IL-6, IL-8, IL-17A, and GM-CSF (Bio-Plex Pro assays, Bio-Rad Laboratories) on a Luminex Bio-Plex 200 System (Bio-Rad Laboratories).

HTT mice = HTT mice (R6/2), bodyweight; assay type: in vivo; settings: 8 wk old HTT mice, over 5 wk
Excerpt: (§1) ALS mice SOD1 G93A strain (B6SJL-Tg(SOD1*G93A)1Gur/J strain #002726, 10 wk old, and HTT mice (B6CBA-Tg(HDexon1)62Gpb/33; strain #006494 HTT: R6/2, 8 wk old), were obtained from Jackson Laboratories (Bar Harbor, Me.), housed in standard housing with controlled ambient conditions and provided with water and food at libitum.

SOD1 mice = experiment: ALS mice SOD1 G93A, bodyweight; assay type: in vivo; settings: untreated mice began to lose bodyweight after 21 days
Excerpt: as §1

[3] = Randomized n-of-1 human PK/PD study: FPLC of morning urine after oral HP-α-CD preparations; settings: in vivo
Protocol: Urine samples (5-10 mL) were pipetted into culture tubes and then frozen for 30 min and samples were then lyophilized for 48-72 h, sealed and stored at −80° C. Phospholipids were extracted from urine samples after reconstitution, with chloroform (CHCl3) and methanol (3:1), and filtered through glass wool. The eluent was washed with 1 M KCl with 0.01% sodium azide. The wash was centrifuged at 3000 g for 30 min and CHCl3 layer transferred to fresh tube and evaporated at 60° C. under nitrogen. Phospholipid extracts and standards were digested in 10 M H2SO4 with 0.16 Ca(NO3)2 and 30% H2O2 and heated for 25 min at 180° C. […] These were vortexed and heated at 35° C. for 30 min. All samples were analyzed in triplicate.
This was coupled to a Beckman Ultra SI column using an isocratic elution profile along a mobile phase of acetonitrile-methanol-phosphoric acid solvent (100:10:1.8) at a flow rate of 1.0 mL/min at RT. The lyophilized samples were resuspended in a hexane-propanol-phenolphthalene mix (3:1:0.1) before injection.
The standard curves (FIG. 43) were generated using DiPalmitoyl-PC in the range of 0.65-32 μM phosphate equivalence. Percentage efficiency of isolation was determined through a comparison of the extraction recovery of total phosphate from normal urine spiked with known amount of synthetic PL with a parallel PL sample digested and assayed without extraction.

erythrocytes [4] = settings: cited from earlier work; for IC50: read-out: hemolytic IC50
SwN2a cells = settings: cited from earlier work
Npc1−/− mice = settings: mouse, in vivo; cited from earlier work
whole blood = settings: cited from earlier work
BBB = settings: cited from earlier work
[5] = tested on: heterogeneous human epithelial colorectal adenocarcinoma (Caco-2) cells; settings: cited from earlier work
rats [6] = settings: s.c. single dose 0.100 g/kg; cited from earlier work
[7] = cited from earlier work
[8] = cited from earlier work; remark: listed apart in the source
erythrocytes [9] = settings: cited from earlier work
[10] = cited from earlier work; remark: listed apart in the source
[11] = 2.1% α-CD added to Western diet; cited from earlier work
[12] = cited from earlier work; remark: listed apart in the source
[13] = tested on: fibroblasts of lysosomal storage diseases; settings: about 6 mM α-CD, about 8 mM HP-β-CD; cited from earlier work
rats [14] = settings: cited from earlier work
rats [15] = settings: cited from earlier work; remark: listed apart in the source
rats [16] = settings: 1 g/kg daily; cited from earlier work
mice/rats = settings: in vivo; cited from earlier work
keratinocytes = settings: cited from earlier work
[17] = IP 800 mg/kg per week for six weeks
[18] = u-statistics for multivariate data

2-hydroxypropyl-alpha-cyclodextrin [HP-α-CD]
cell migration / wound closure, concentration dependence ([1]; 2 h treatment, MDA-MB 231 and MCF-7): migration decreased with higher concentration | effect on migration, HP-α-CD versus HP-β-CD ([1]; MDA-MB 231 and MCF-7): stronger effect on migration than HP-β-CD | effect on migration, HP-α-CD versus HP-β-CD ([1]; MDA-MB 231 and MCF-7, listed as HPαCD): twice as effective as HP-β-CD | inhibition of migration, 1 mM HP-α-CD versus 2 mM HP-β-CD [1]: superior to inhibition at 2 mM HP-β-CD | inhibition of migration, 1 mM HP-α-CD versus 2 mM HP-β-CD ([1]; listed as HPαCD): more effective than 2 mM HPβCD | Tumor volume, median [2, 17]: 356 mm3 | effect on tumor volume [2, 17]: more effective than HP-β-CD | plasma cytokines (IL-1β, IL-18, IL-6, IL-8, IL-17A, GM-CSF) versus Vehicle ([2]; conventional 0.05 level): not significant only in IL-6 | mice that did not develop lung metastases ([2]; groups of 15 mice): 5 mice | mice who died ([2]; groups of 15 mice): one | comprehensive analysis of all six plasma cytokine markers [2, 18]: more effective than HP-β-CD | lung and liver metastases overall [2, 18]: more effective | decline in bodyweight (HTT mice): reduced decline in bodyweight | bodyweight growth (SOD1 mice): continued to grow for at least two more weeks | lysophospholipids in urine (fractions 9 and 10, LPC) [3]: higher than in all other groups | IC50 (erythrocytes [4]): > 100 mM | level of membrane cholesterol (SwN2a cells): reduced | levels of Aβ42 (SwN2a cells): dramatically lowered | cholesterol accumulation (Npc1−/− mice): reduces cholesterol accumulation, albeit not as effectively as HP-β-CD | whole blood TD50 (whole blood): 360 mM/L | BBB breakdown (BBB): 2.5 mM | toxicity on the BBB model (BBB): similarly safe | cytotoxicity [5]: less cytotoxic than α-CD

OC[C@H]1O[C@@H]2O[C@H]3[C@H](O)[C@@H](O)[C@@H](O[C@H]4[C@H](O)[C@@H](O)[C@@H](O[C@H]5[C@H](O)[C@@H](O)[C@@H](O[C@H]6[C@H](O)[C@@H](O)[C@@H](O[C@H]7[C@H](O)[C@@H](O)[C@@H](O[C@H]1[C@H](O)[C@H]2O)O[C@@H]7CO)O[C@@H]6CO)O[C@@H]5CO)O[C@@H]4CO)O[C@@H]3CO [α-CD, alpha-cyclodextrin]
Nephrosis (light microscopy) (rats [6]): 0.100 no changes | half-life (t1/2) after i.v. in rats ([7]; i.v.): 25 min | oral absorption in rats ([7]; oral): 2-3% | excreted after i.v. unchanged in urine [8]: ~90% | hemolytic activity (erythrocytes [4]; comparison between cyclodextrins): lower than that of both β-CD and HP-β-CD | IC50 (erythrocytes [4]): 16 mM | reduction of phospholipids (erythrocytes [9]; 10 mM, FIG. 3): 30% | extraction of cholesterol (erythrocytes [9]): negligible even at hemolytic concentrations | found in urine within 6-8 h post oral administration [10]: 1.6% and 2.0% | decrease of plasma phospholipids [11]: 17.5% | Permitted Daily Exposure (PDE) threshold, parenteral ([12]; CHMP 2014): 0.02 mg/kg/day | Permitted Daily Exposure (PDE) threshold, parenteral, revised ([12]; Oct. 9, 2017): 200 mg/kg/day | reduction of lysosomal storage [13]: more effective in reducing lysosomal storage than about 8 mM HP-β-CD | LD50 with bolus i.v. injections (rats [14]): 1000 mg/kg | Nephrosis/Death (rats [15]; s.c. daily doses 0.100 g/kg): 0.100 no nephrosis | Nephrosis (rats [15]; s.c. daily doses 1.000 g/kg): 1.000 all had severe nephrosis, | Death (rats [15]; s.c. up to 7 daily doses of 1.000 g/kg): one rat died (after 2 days) | whole blood TD50 (whole blood): 11 mM/L | i.v. toxicity, 1 g/kg daily (rats [16]): 1 died @ 2 d | LD50 i.v./i.p. in mice/rats (mice/rats): 500 to 1000 mg/kg | Transport across BBB (BBB; 2 h, 0.5 mM): 21.5 (0.5 mM) % | toxicity on the BBB model (BBB): more toxic | caspase-dependent apoptotic cell death (keratinocytes): not
